pIC50: −log10 of the molar value.
How the values were obtained:
[1] = biological target: DNA topoisomerase 2-alpha (Homo sapiens) (UniProt P11388); test: Inhibition of strand rejoining activity of human DNA topoisomerase 2 assessed as protein-DNA complex formation at 10 uM by cell-based assay; design: scale not given: the % may be the effect or the level left
KB = test: Cytotoxicity against human KB cells assessed as reduction in cell number after 3 days; type: functional; settings: 72 h, read-out: ID50 (the source's name)
[2] = biological target: DNA topoisomerase 2-alpha (Homo sapiens) (UniProt P11388); test: Inhibition of human DNA topoisomerase 2
[3] = biological target: DNA topoisomerase 2-alpha (Homo sapiens) (UniProt P11388); test: Inhibition of strand rejoining activity of human DNA topoisomerase 2 assessed as protein-DNA complex formation at 20 uM by cell-based assay; design: scale not given: the % may be the effect or the level left

Chain of DNA topoisomerase 2-alpha (Homo sapiens) (P11388 whole entry): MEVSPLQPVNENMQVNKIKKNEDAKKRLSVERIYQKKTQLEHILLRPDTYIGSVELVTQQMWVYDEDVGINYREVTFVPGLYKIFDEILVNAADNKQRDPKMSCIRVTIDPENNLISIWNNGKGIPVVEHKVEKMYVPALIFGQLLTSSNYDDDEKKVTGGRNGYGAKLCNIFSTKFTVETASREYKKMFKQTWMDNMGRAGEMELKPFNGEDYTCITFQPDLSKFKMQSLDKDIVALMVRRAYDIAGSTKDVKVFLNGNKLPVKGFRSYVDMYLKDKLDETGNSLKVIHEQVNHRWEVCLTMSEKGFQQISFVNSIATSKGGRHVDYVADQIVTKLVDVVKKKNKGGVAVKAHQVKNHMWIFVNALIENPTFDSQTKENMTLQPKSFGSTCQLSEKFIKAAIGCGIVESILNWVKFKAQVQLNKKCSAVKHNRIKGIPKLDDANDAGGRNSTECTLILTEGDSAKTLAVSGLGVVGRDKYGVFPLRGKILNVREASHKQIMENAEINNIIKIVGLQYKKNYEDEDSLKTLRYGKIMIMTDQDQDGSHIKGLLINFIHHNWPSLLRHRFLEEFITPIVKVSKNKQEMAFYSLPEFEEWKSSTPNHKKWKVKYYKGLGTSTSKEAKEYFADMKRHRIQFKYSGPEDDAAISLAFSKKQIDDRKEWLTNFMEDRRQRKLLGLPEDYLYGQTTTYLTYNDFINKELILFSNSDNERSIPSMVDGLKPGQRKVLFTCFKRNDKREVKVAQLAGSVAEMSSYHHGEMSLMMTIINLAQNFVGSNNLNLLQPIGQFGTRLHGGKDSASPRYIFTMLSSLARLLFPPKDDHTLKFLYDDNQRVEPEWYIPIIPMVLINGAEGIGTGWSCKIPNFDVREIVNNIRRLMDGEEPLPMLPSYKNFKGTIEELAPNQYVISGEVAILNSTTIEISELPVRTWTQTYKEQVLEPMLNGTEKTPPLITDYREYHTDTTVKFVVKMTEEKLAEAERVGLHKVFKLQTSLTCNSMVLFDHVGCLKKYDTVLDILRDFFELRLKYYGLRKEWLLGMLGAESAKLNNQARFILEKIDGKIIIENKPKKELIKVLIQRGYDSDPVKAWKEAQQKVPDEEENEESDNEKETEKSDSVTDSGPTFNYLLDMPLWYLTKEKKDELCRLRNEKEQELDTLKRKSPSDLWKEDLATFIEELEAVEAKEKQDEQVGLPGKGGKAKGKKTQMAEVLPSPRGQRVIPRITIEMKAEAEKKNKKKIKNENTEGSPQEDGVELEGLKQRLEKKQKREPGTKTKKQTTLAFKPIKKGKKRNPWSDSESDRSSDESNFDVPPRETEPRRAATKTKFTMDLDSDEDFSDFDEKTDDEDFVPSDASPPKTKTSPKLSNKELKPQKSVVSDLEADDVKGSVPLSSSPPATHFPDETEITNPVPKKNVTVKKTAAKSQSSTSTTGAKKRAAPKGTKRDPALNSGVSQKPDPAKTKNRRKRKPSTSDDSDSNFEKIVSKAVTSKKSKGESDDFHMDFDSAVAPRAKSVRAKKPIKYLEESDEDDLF

## COc1cc([C@@H]2c3cc4c(cc3[C@@H](Nc3cccc(Br)c3)[C@H]3COC(=O)[C@H]23)OCO4)cc(OC)c1O
[1]
  Activity: 62%

## COc1cc([C@@H]2c3cc4c(cc3[C@@H](Nc3ccc(C(C)=O)cc3)[C@H]3COC(=O)[C@H]23)OCO4)cc(O)c1O
KB
  pIC50: 6.00
[2]
  ID50: 25 µM
[3]
  Activity: 147%

## COC1=CC([C@@H]2c3cc4c(cc3[C@@H](Nc3ccc(Cl)cc3)[C@H]3COC(=O)[C@@H]32)OCO4)=CC(=O)C1=O
KB
  pIC50: < 5.40
[2]
  ID50: 25 µM
[3]
  Activity: 27%

## COC(=O)c1ccc(N[C@@H]2c3cc4c(cc3[C@@H](C3=CC(=O)C(=O)C(OC)=C3)[C@H]3C(=O)OC[C@@H]32)OCO4)cc1O
KB
  pIC50: 5.72
[2]
  ID50: 100 µM
[3]
  Activity: 47%

## COc1cc([C@@H]2c3cc4c(cc3[C@@H](Nc3ccc(Cl)cc3)[C@H]3COC(=O)[C@H]23)OCO4)cc(O)c1O
KB
  pIC50: 5.70
[2]
  ID50: > 50 µM
[3]
  Activity: 77%

## COc1cc([C@@H]2c3cc4c(cc3[C@H](O)[C@H]3COC(=O)[C@H]23)OCO4)cc(O)c1O
[2]
  ID50: 50 µM
[3]
  Activity: 8%

## COc1cc([C@@H]2c3cc4c(cc3[C@@H](O)[C@H]3COC(=O)[C@H]23)OCO4)cc(O)c1O
[2]
  ID50: 100 µM
[3]
  Activity: 50%

## COC1=CC([C@@H]2c3cc4c(cc3[C@@H](Nc3ccc([N+](=O)[O-])cc3)[C@H]3COC(=O)[C@@H]32)OCO4)=CC(=O)C1=O
KB
  pIC50: 5.89
[2]
  ID50: 10 µM
[3]
  Activity: 128%

## COc1cc([C@@H]2c3cc4c(cc3[C@@H](Nc3ccccc3)[C@H]3COC(=O)[C@H]23)OCO4)cc(O)c1O
KB
  pIC50: 5.74
[2]
  ID50: 25 µM
[3]
  Activity: 128%

## COC1=CC([C@@H]2c3cc4c(cc3[C@@H](Nc3ccccc3)[C@H]3COC(=O)[C@@H]32)OCO4)=CC(=O)C1=O
KB
  pIC50: < 5.70
[2]
  ID50: 25 µM
[3]
  Activity: 32%

## COc1cc([C@@H]2c3cc4c(cc3[C@@H](Nc3cccc([N+](=O)[O-])c3)[C@H]3COC(=O)[C@H]23)OCO4)cc(O)c1O
KB
  pIC50: 5.70
[2]
  ID50: 50 µM
[3]
  Activity: 75%

## COc1cc([C@@H]2c3cc4c(cc3[C@@H](Nc3cc(F)cc(F)c3)[C@H]3COC(=O)[C@H]23)OCO4)cc(OC)c1O
[2]
  ID50: 50 µM
[1]
  Activity: 115%

## COC1=CC([C@@H]2c3cc4c(cc3[C@@H](Nc3ccc(CC#N)cc3)[C@H]3COC(=O)[C@@H]32)OCO4)=CC(=O)C1=O
KB
  pIC50: 5.70
[2]
  ID50: 25 µM
[3]
  Activity: 41%

## COc1cc([C@@H]2c3cc4c(cc3[C@H](O)[C@H]3COC(=O)[C@H]23)OCO4)cc(OC)c1O
[2]
  ID50: > 100 µM
[1]
  Activity: 1.1%

## CCOC(=O)c1ccccc1N[C@@H]1c2cc3c(cc2[C@@H](C2=CC(=O)C(=O)C(OC)=C2)[C@H]2C(=O)OC[C@@H]21)OCO3
KB
  pIC50: 5.15
[2]
  ID50: 100 µM
[3]
  Activity: 4%

## COc1cc([C@@H]2c3cc4c(cc3[C@@H](Nc3cccc(F)c3)[C@H]3COC(=O)[C@H]23)OCO4)cc(OC)c1O
[2]
  ID50: 50 µM
[1]
  Activity: 158%

## COC(=O)c1cccc(N[C@@H]2c3cc4c(cc3[C@@H](C3=CC(=O)C(=O)C(OC)=C3)[C@H]3C(=O)OC[C@@H]32)OCO4)c1
KB
  pIC50: 5.92
[2]
  ID50: 100 µM
[3]
  Activity: 67%

## COC1=CC([C@@H]2c3cc4c(cc3[C@@H](Nc3cc(F)cc(F)c3)[C@H]3COC(=O)[C@@H]32)OCO4)=CC(=O)C1=O
KB
  pIC50: 5.70
[2]
  ID50: 50 µM
[3]
  Activity: 57%

## COC(=O)c1cccc(N[C@@H]2c3cc4c(cc3[C@@H](c3cc(O)c(O)c(OC)c3)[C@H]3C(=O)OC[C@@H]32)OCO4)c1
KB
  pIC50: 5.64
[2]
  ID50: 25 µM
[3]
  Activity: 94%

## CCOC(=O)c1ccc(N[C@@H]2c3cc4c(cc3[C@@H](C3=CC(=O)C(=O)C(OC)=C3)[C@H]3C(=O)OC[C@@H]32)OCO4)cc1
KB
  pIC50: 5.85
[2]
  ID50: 25 µM
[3]
  Activity: 110%

## COc1cc([C@@H]2c3cc4c(cc3[C@@H](Nc3ccc([N+](=O)[O-])cc3)[C@H]3COC(=O)[C@H]23)OCO4)cc(O)c1O
KB
  pIC50: 5.89
[2]
  ID50: 10 µM
[3]
  Activity: 200%

## COC1=CC([C@@H]2c3cc4c(cc3[C@@H](Nc3ccc(F)cc3)[C@H]3COC(=O)[C@@H]32)OCO4)=CC(=O)C1=O
KB
  pIC50: 5.89
[2]
  ID50: 25 µM
[3]
  Activity: 92%

## COC1=CC([C@@H]2c3cc4c(cc3[C@@H](Nc3cccc(Br)c3)[C@H]3COC(=O)[C@@H]32)OCO4)=CC(=O)C1=O
KB
  pIC50: 5.21
[2]
  ID50: 50 µM
[3]
  Activity: 15%

## COC1=CC([C@@H]2c3cc4c(cc3[C@H](O)[C@H]3COC(=O)[C@@H]32)OCO4)=CC(=O)C1=O
KB
  pIC50: 5.72
[2]
  ID50: 10 µM
[3]
  Activity: 4%

## COC1=CC([C@@H]2c3cc4c(cc3[C@@H](Nc3ccc(C#N)cc3)[C@H]3COC(=O)[C@@H]32)OCO4)=CC(=O)C1=O
KB
  pIC50: < 5.70
[2]
  ID50: 50 µM
[3]
  Activity: 18%

## COC1=CC([C@@H]2c3cc4c(cc3[C@@H](Nc3ccccc3F)[C@H]3COC(=O)[C@@H]32)OCO4)=CC(=O)C1=O
KB
  pIC50: 5.92
[2]
  ID50: 100 µM
[3]
  Activity: 29%

## COc1cc([C@@H]2c3cc4c(cc3[C@@H](Nc3ccccc3F)[C@H]3COC(=O)[C@H]23)OCO4)cc(OC)c1O
[1]
  Activity: 121%

## COc1cc([C@@H]2c3cc4c(cc3[C@@H](Nc3ccc(F)cc3)[C@H]3COC(=O)[C@H]23)OCO4)cc(O)c1O
KB
  pIC50: 5.82
[2]
  ID50: 10 µM
[3]
  Activity: 117%

## COC1=CC([C@@H]2c3cc4c(cc3[C@@H](Nc3cc([N+](=O)[O-])cc([N+](=O)[O-])c3)[C@H]3COC(=O)[C@@H]32)OCO4)=CC(=O)C1=O
KB
  pIC50: 5.74
[2]
  ID50: 50 µM
[3]
  Activity: 32%

## COc1cc([C@@H]2c3cc4c(cc3[C@@H](Nc3ccc(C#N)cc3)[C@H]3COC(=O)[C@H]23)OCO4)cc(O)c1O
KB
  pIC50: 5.74
[2]
  ID50: 25 µM
[3]
  Activity: 146%

## COC1=CC([C@@H]2c3cc4c(cc3[C@@H](Oc3ccc(F)cc3)[C@H]3COC(=O)[C@@H]32)OCO4)=CC(=O)C1=O
KB
  pIC50: 6.05
[2]
  ID50: 100 µM
[3]
  Activity: 30%

## COC1=CC([C@@H]2c3cc4c(cc3C(=O)[C@H]3COC(=O)[C@@H]32)OCO4)=CC(=O)C1=O
KB
  pIC50: < 5.40
[2]
  ID50: 5 µM
[3]
  Activity: 56%

## COc1cc([C@@H]2c3cc4c(cc3[C@@H](Nc3ccc(Cl)cc3)[C@H]3COC(=O)[C@H]23)OCO4)cc(OC)c1O
[2]
  ID50: 50 µM
[1]
  Activity: 99%

## COC1=CC([C@@H]2c3cc4c(cc3[C@@H](Nc3ccc(C(C)=O)cc3)[C@H]3COC(=O)[C@@H]32)OCO4)=CC(=O)C1=O
KB
  pIC50: 5.82
[2]
  ID50: 50 µM
[3]
  Activity: 69%

## COC1=CC([C@@H]2c3cc4c(cc3[C@@H](Nc3cncc5ccccc35)[C@H]3COC(=O)[C@@H]32)OCO4)=CC(=O)C1=O
KB
  pIC50: 5.82
[2]
  ID50: 100 µM
[3]
  Activity: 95%

## COc1cc([C@@H]2c3cc4c(cc3[C@@H](O)[C@H]3COC(=O)[C@H]23)OCO4)cc(OC)c1O
[2]
  ID50: > 100 µM
[1]
  Activity: 0%

## COC1=CC([C@@H]2c3cc4c(cc3[C@@H](Nc3cccc(F)c3)[C@H]3COC(=O)[C@@H]32)OCO4)=CC(=O)C1=O
KB
  pIC50: 5.80
[2]
  ID50: 100 µM
[3]
  Activity: 37%

## COC1=CC([C@@H]2c3cc4c(cc3[C@@H](Nc3ccc(C(F)(F)F)cc3)[C@H]3COC(=O)[C@@H]32)OCO4)=CC(=O)C1=O
KB
  pIC50: 5.19
[2]
  ID50: 25 µM
[3]
  Activity: 51%

## COC1=CC([C@@H]2c3cc4c(cc3[C@@H](Nc3cccc([N+](=O)[O-])c3)[C@H]3COC(=O)[C@@H]32)OCO4)=CC(=O)C1=O
KB
  pIC50: < 5.40
[2]
  ID50: 50 µM
[3]
  Activity: 33%

## COC1=CC([C@@H]2c3cc4c(cc3[C@@H](Nc3cc(C(F)(F)F)cc(C(F)(F)F)c3)[C@H]3COC(=O)[C@@H]32)OCO4)=CC(=O)C1=O
KB
  pIC50: 5.26
[2]
  ID50: > 100 µM
[3]
  Activity: 4%

## COC1=CC([C@@H]2c3cc4c(cc3[C@@H](O)[C@H]3COC(=O)[C@@H]32)OCO4)=CC(=O)C1=O
KB
  pIC50: 5.55
[2]
  ID50: < 5 µM
[3]
  Activity: 41%

## COc1cc([C@@H]2c3cc4c(cc3[C@@H](Nc3ccc(CC#N)cc3)[C@H]3COC(=O)[C@H]23)OCO4)cc(O)c1O
KB
  pIC50: 5.92
[2]
  ID50: 25 µM
[3]
  Activity: 109%
